Measurements taken from patent US12195427B2, “MASP-2 inhibitors and methods of use” (priority 2018, dated 2025).

Target: MASP-2 CCP2-SP (Homo sapiens (Human), UniProt O00187)
Assay: MASP-2 co-crystallization, X-ray crystallography and structure analysis (H-bonds, van der Waals contacts);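 as to Ligand-pharmacophore element distance, pharmacophore element C2: distance from averaged pharmacophore element to bound ligand; missing value means element absent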;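 as to Ligand-pharmacophore element distance, pharmacophore element C3: distance from averaged pharmacophore element to bound ligand; missing value means element absent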;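 as to Ligand-pharmacophore element distance, pharmacophore element C4: distance from averaged pharmacophore element to bound ligand; missing value means element absent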;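 as to Ligand-pharmacophore element distance, pharmacophore element C5: distance from averaged pharmacophore element to bound ligand; missing value means element absent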
Parameters: van der Waals contact distance, MASP-2 HIS 483 atom CD2 / van der Waals contact distance, MASP-2 HIS 483 atom NE2 / van der Waals contact distance, SER 654 C to compound atom / van der Waals contact distance, SER 654 O to compound atom / van der Waals contact distance, TRP 655 C to compound atom / van der Waals contact distance, MASP-2 GLY 528 atom CA / van der Waals contact distance TRP 655 atom CZ3 / van der Waals contact distance TRP 655 atom N / van der Waals contact distance TRP 655 atom CE3 / van der Waals contact distance GLY 656 atom C / van der Waals contact distance GLY 656 atom CA / van der Waals contact distance GLY 656 atom O / van der Waals contact distance, MASP-2 TYR 607 atom CD1 / van der Waals contact distance, MASP-2 PRO 606 atom O / d(C3,CA1) / d(CA1,N1)2 / d(H4,O1) / d(H4,O2) / d(O1,O2) / d(CA1,O2) / d(CA6,O1) / d(CA6,O2) / d(CA1,C5) / d(O2,H3) / d(N2,C2) / d(CA5,N2) / d(N2,C4) / d(N2,C6) / d(N2,CA3) / d(N2,O3) / d(O4,H2): unit not given beside the values
Settings: for Ligand-pharmacophore element distance, pharmacophore element C2 / Ligand-pharmacophore element distance, pharmacophore element C3 / Ligand-pharmacophore element distance, pharmacophore element C4 / Ligand-pharmacophore element distance, pharmacophore element C5 / Ligand-pharmacophore element distance, pharmacophore element C6 / Ligand-pharmacophore element distance, pharmacophore element C7 / Ligand-pharmacophore element distance, pharmacophore element CA1 / Ligand-pharmacophore element distance, pharmacophore element CA2 / Ligand-pharmacophore element distance, pharmacophore element CA3 / Ligand-pharmacophore element distance, pharmacophore element CA4 / Ligand-pharmacophore element distance, pharmacophore element CA5 / Ligand-pharmacophore element distance, pharmacophore element CA6: Table A4-1; for d(CA1,O1) / d(CA1,O2) / d(H4,O1) / d(H4,O2) / d(O1,O2) / d(CA1,N1): Table A5-1 pharmacophore: distance between elements, S2/S1 region; for a(CA1, O1, O2) / a(O1, O2, H4) / A(N1, CA1, O1) a): Table A6-1 pharmacophore angle; for Pharmacophore torsion angle a(H4, O1, O2, H3) / Pharmacophore torsion angle a(H4, O1, O2, N2) / Pharmacophore torsion angle a(O1, H4, O2, CA1) / Pharmacophore torsion angle a(N1, CA1, O2, H4) / Pharmacophore torsion angle a(O1, O2, N2, C2): Table A7-1; for Pharmacophore protein distance to MET_658 (first MET_658 column) / Pharmacophore protein distance to MET_658 (second MET_658 column) / Pharmacophore protein distance to GLY_528 / Pharmacophore protein distance to PHE_529 / Pharmacophore protein distance to PRO_608 / Pharmacophore protein distance to SER_611 / Pharmacophore protein distance to TRP_655: Table A8-6, nearest protein atom in cell to the left; for Pharmacophore protein distance to MET_658 (first MET_658 column): 6th residue column; for Pharmacophore protein distance to MET_658 (second MET_658 column): 9th residue column; for Pharmacophore protein distance to TRP_655: pharmacophore elements C6, CA3, O3, H1; for A(N1, CA1, O1) a): all compounds with protonatable center N1 except Methyl-amino-pyridine
In short: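 E. coli-expressed CCP2-SP (±6His); apo crystals soaked 1–2× in inhibitor-containing crystallization solution; optional 20% glycerol cryoprotection, LN2 flash-cool; synchrotron data at 1.0 wavelength; MR using 1Q3X portions, partial refinement; single pose analysed when several seen.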

[1] = Table A5-2 pharmacophore distance, S3/S4 region
[2] = between pharmacophore elements of the bound compound
[3] = Table A7-2, between pharmacophore elements of the bound compound

MASP-2 CCP2-SP, sequence (O00187 445-686): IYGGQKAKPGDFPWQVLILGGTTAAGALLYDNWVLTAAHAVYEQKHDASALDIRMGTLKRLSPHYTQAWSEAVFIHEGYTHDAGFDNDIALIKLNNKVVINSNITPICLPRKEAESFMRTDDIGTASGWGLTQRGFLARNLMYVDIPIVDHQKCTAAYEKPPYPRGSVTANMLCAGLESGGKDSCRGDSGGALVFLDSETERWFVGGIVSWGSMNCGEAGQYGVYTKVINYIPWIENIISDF
MASP-2 CCP2-SP, sequence (O00187 364-432 partner): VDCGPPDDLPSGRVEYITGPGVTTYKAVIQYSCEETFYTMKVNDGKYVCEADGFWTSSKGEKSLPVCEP

SMILES: C[C@H](NC(=O)[C@H]1C[C@@H](c2ccccc2)CN1)C(=O)NCc1ccc2c(N)nccc2c1.Cl.Cl [1089_B]
- Ligand-pharmacophore element distance, pharmacophore element C2: 0
- Ligand-pharmacophore element distance, pharmacophore element C3: 0
- Ligand-pharmacophore element distance, pharmacophore element C4: 0
- Ligand-pharmacophore element distance, pharmacophore element C5: 0
- Ligand-pharmacophore element distance, pharmacophore element C6: 0
- Ligand-pharmacophore element distance, pharmacophore element C7: 0
- Ligand-pharmacophore element distance, pharmacophore element CA1: 0.99
- Ligand-pharmacophore element distance, pharmacophore element CA2: 0
- Ligand-pharmacophore element distance, pharmacophore element CA3: 0
- Ligand-pharmacophore element distance, pharmacophore element CA4: 0
- Ligand-pharmacophore element distance, pharmacophore element CA5: 1.16
- Ligand-pharmacophore element distance, pharmacophore element CA6: 0
- d(CA1,O1): 5.68
- d(CA1,O2): 5.17
- d(H4,O1): 3.14
- d(H4,O2): 3.69
- d(O1,O2): 3.33
- d(CA5,N2) [1]: 5.10
- d(O2,H3) [1]: 5.91
- d(O2,N2) [1]: 2.70
- a(CA1, O1, O2): 99.20
- a(O1, O2, H4): 122.31
- a(O1, O2, H3) (Table A6-2 pharmacophore angle): 152.83
- a(O1, O2, N2) (Table A6-2 pharmacophore angle): 141.07
- Pharmacophore torsion angle a(H4, O1, O2, H3) [2]: 89.27
- Pharmacophore torsion angle a(H4, O1, O2, N2) [2]: −178.39
- Pharmacophore torsion angle a(O1, H4, O2, CA1) [2]: −94.63
- Pharmacophore torsion angle a(O1, O2, N2, CA5) [3]: 133.38
- Pharmacophore protein distance to MET_658 (first MET_658 column): 2.61
- Pharmacophore protein distance to MET_658 (second MET_658 column): 3.31
- Pharmacophore protein distance to GLY_528: 3.59
- Pharmacophore protein distance to PHE_529: 2.81
- Pharmacophore protein distance to PRO_608: 3.90
- Pharmacophore protein distance to SER_611: 2.79
- Pharmacophore protein distance to TRP_655: 3.57

SMILES: C[C@H](NC(=O)[C@H]1Cc2c([nH]c3ccccc23)CN1)C(=O)NCc1ccc(C(=N)N)cc1.Cl.Cl [1097_1]
- Ligand-pharmacophore element distance, pharmacophore element C2: 0.69
- Ligand-pharmacophore element distance, pharmacophore element C3: 0
- Ligand-pharmacophore element distance, pharmacophore element C4: 0
- Ligand-pharmacophore element distance, pharmacophore element C5: 0
- Ligand-pharmacophore element distance, pharmacophore element C6: 0
- Ligand-pharmacophore element distance, pharmacophore element C7: 0
- Ligand-pharmacophore element distance, pharmacophore element CA1: 0.29
- Ligand-pharmacophore element distance, pharmacophore element CA2: 0
- Ligand-pharmacophore element distance, pharmacophore element CA3: 0
- Ligand-pharmacophore element distance, pharmacophore element CA4: 0
- Ligand-pharmacophore element distance, pharmacophore element CA5: 0.98
- Ligand-pharmacophore element distance, pharmacophore element CA6: 0
- d(CA1,N1): 3.53
- d(CA1,O1): 4.28
- d(CA1,O2): 4.28
- d(H4,O1): 3.88
- d(H4,O2): 3.35
- d(O1,O2): 3.32
- d(CA5,N2) [1]: 4.50
- d(N2,C2) [1]: 1.42
- d(O2,H3) [1]: 4.58
- d(O2,N2) [1]: 2.81
- a(CA1, O1, O2): 112.80
- a(O1, O2, H4): 125.81
- A(N1, CA1, O1) a): 162.99
- a(O1, O2, H3) (Table A6-2 pharmacophore angle): 152.91
- a(O1, O2, N2) (Table A6-2 pharmacophore angle): 134.93
- a(O2, N2, C2) (Table A6-2 pharmacophore angle): 125.76
- Pharmacophore torsion angle a(H4, O1, O2, H3) [2]: 86.65
- Pharmacophore torsion angle a(H4, O1, O2, N2) [2]: 121.05
- Pharmacophore torsion angle a(N1, CA1, O2, H4) [2]: −97.71
- Pharmacophore torsion angle a(O1, H4, O2, CA1) [2]: −66.34
- Pharmacophore torsion angle a(O1, O2, N2, C2) [2]: 136.92
- Pharmacophore torsion angle a(O1, O2, N2, CA5) [3]: 148.15
- Pharmacophore protein distance to MET_658 (first MET_658 column): 2.40
- Pharmacophore protein distance to MET_658 (second MET_658 column): 3.49
- Pharmacophore protein distance to GLY_528: 3.46
- Pharmacophore protein distance to PHE_529: 2.89
- Pharmacophore protein distance to PRO_608: 3.89
- Pharmacophore protein distance to SER_611: 3.04
- Pharmacophore protein distance to TRP_655: 3.24

SMILES: C[C@H](NC(=O)[C@H]1Cc2c([nH]c3ccccc23)CN1)C(=O)NCc1ccc(C(=N)N)cc1.Cl.Cl [1097_2]
- Ligand-pharmacophore element distance, pharmacophore element C2: 0.72
- Ligand-pharmacophore element distance, pharmacophore element C3: 0
- Ligand-pharmacophore element distance, pharmacophore element C4: 0
- Ligand-pharmacophore element distance, pharmacophore element C5: 0
- Ligand-pharmacophore element distance, pharmacophore element C6: 0
- Ligand-pharmacophore element distance, pharmacophore element C7: 0
- Ligand-pharmacophore element distance, pharmacophore element CA1: 0.32
- Ligand-pharmacophore element distance, pharmacophore element CA2: 0
- Ligand-pharmacophore element distance, pharmacophore element CA3: 0
- Ligand-pharmacophore element distance, pharmacophore element CA4: 0
- Ligand-pharmacophore element distance, pharmacophore element CA5: 1.1
- Ligand-pharmacophore element distance, pharmacophore element CA6: 0
- d(CA1,N1): 3.52
- d(CA1,O1): 4.35
- d(CA1,O2): 4.09
- d(H4,O1): 4.74
- d(H4,O2): 4.28
- d(O1,O2): 3.33
- d(CA5,N2) [1]: 4.50
- d(N2,C2) [1]: 1.42
- d(O2,H3) [1]: 4.29
- d(O2,N2) [1]: 2.81
- a(CA1, O1, O2): 109.11
- a(O1, O2, H4): 137.06
- A(N1, CA1, O1) a): 163.92
- a(O1, O2, H3) (Table A6-2 pharmacophore angle): 153.30
- a(O1, O2, N2) (Table A6-2 pharmacophore angle): 137.12
- a(O2, N2, C2) (Table A6-2 pharmacophore angle): 128.45
- Pharmacophore torsion angle a(H4, O1, O2, H3) [2]: 91.00
- Pharmacophore torsion angle a(H4, O1, O2, N2) [2]: 129.42
- Pharmacophore torsion angle a(N1, CA1, O2, H4) [2]: −142.69
- Pharmacophore torsion angle a(O1, H4, O2, CA1) [2]: −71.28
- Pharmacophore torsion angle a(O1, O2, N2, C2) [2]: 125.27
- Pharmacophore torsion angle a(O1, O2, N2, CA5) [3]: 137.08
- Pharmacophore protein distance to MET_658 (first MET_658 column): 2.55
- Pharmacophore protein distance to MET_658 (second MET_658 column): 3.13
- Pharmacophore protein distance to GLY_528: 3.52
- Pharmacophore protein distance to PHE_529: 3.02
- Pharmacophore protein distance to PRO_608: 3.56
- Pharmacophore protein distance to SER_611: 3.29
- Pharmacophore protein distance to TRP_655: 3.09

SMILES: CC(NC(=O)C(CCc1ccccc1)NCCCc1ccc(O)cc1)C(=O)NCc1ccc(C(=N)N)cc1.Cl.Cl (centres unmarked) [1145_A]
- Ligand-pharmacophore element distance, pharmacophore element C2: 0
- Ligand-pharmacophore element distance, pharmacophore element C3: 0
- Ligand-pharmacophore element distance, pharmacophore element C4: 0
- Ligand-pharmacophore element distance, pharmacophore element C5: 0
- Ligand-pharmacophore element distance, pharmacophore element C6: 0
- Ligand-pharmacophore element distance, pharmacophore element C7: 0
- Ligand-pharmacophore element distance, pharmacophore element CA1: 0.47
- Ligand-pharmacophore element distance, pharmacophore element CA2: 0.41
- Ligand-pharmacophore element distance, pharmacophore element CA3: 1.22
- Ligand-pharmacophore element distance, pharmacophore element CA4: 0
- Ligand-pharmacophore element distance, pharmacophore element CA5: 0
- Ligand-pharmacophore element distance, pharmacophore element CA6: 0
- d(CA1,N1): 3.54
- d(CA1,O1): 4.42
- d(CA1,O2): 4.42
- d(H4,O1): 4.89
- d(H4,O2): 4.48
- d(O1,O2): 3.28
- d(N2,CA2) [1]: 5.91
- d(N2,CA3) [1]: 5.59
- d(N2,H1) [1]: 8.64
- d(N2,O3) [1]: 7.97
- d(O2,H3) [1]: 5.36
- d(O2,N2) [1]: 2.77
- a(CA1, O1, O2): 111.73
- a(O1, O2, H4): 139.31
- A(N1, CA1, O1) a): 162.28
- a(O1, O2, H3) (Table A6-2 pharmacophore angle): 150.25
- a(O1, O2, N2) (Table A6-2 pharmacophore angle): 136.24
- a(O2, N2, CA2) (Table A6-2 pharmacophore angle): 153.28
- a(O2, N2, CA3) (Table A6-2 pharmacophore angle): 161.48
- a(O2, N2, H1) (Table A6-2 pharmacophore angle): 168.81
- a(O2, N2, O3) (Table A6-2 pharmacophore angle): 168.41
- Pharmacophore torsion angle a(H4, O1, O2, H3) [2]: 48.71
- Pharmacophore torsion angle a(H4, O1, O2, N2) [2]: 124.15
- Pharmacophore torsion angle a(N1, CA1, O2, H4) [2]: −128.41
- Pharmacophore torsion angle a(O1, H4, O2, CA1) [2]: −59.90
- Pharmacophore torsion angle a(O1, O2, N2, CA2) [3]: 140.87
- Pharmacophore torsion angle a(O1, O2, N2, CA3) [3]: −15.65
- Pharmacophore torsion angle a(O1, O2, N2, H1) [3]: −17.10
- Pharmacophore torsion angle a(O1, O2, N2, O3) [3]: −10.98
